The source of these data is patent US7943619B2, “Isoxazolo-pyridazine derivatives” (priority 2007, dated 2011).

Counter-ions that a name gives are not always drawn.

In the test the target is human GABA A receptor α5β3γ2 (α5 subunit) (Homo sapiens, UniProt P18507+P31644). Put plainly: biochemical. The test is classed as binding. To be noted: competition for [3H]flumazenil binding, HEK293 cells transiently expressing human receptors; means of two determinations; read-out: hKi. How it is done:
The affinity of compounds at GABA A receptor subtypes was measured by competition for [3H]flumazenil (85 Ci/mmol; Roche) binding to HEK293 cells expressing rat (stably transfected) or human (transiently transfected) receptors of composition α1β3γ2, α2β3γ2, α3β3γ2 and α5β3γ2.
Cell pellets were suspended in Krebs-tris buffer (4.8 mM KCl, 1.2 mM CaCl2, 1.2 mM MgCl2, 120 mM NaCl, 15 mM Tris; pH 7.5; binding assay buffer), homogenized by polytron for ca. 20 sec on ice and centrifuged for 60 min at 4° C. (50000 g; Sorvall, rotor: SM24=20000 rpm). The cell pellets were resuspended in Krebs-tris buffer and homogenized by polytron for ca. 15 sec on ice. Protein was measured (Bradford method, Bio-Rad) and aliquots of 1 mL were prepared and stored at −80° C.
Assays were incubated to equilibrium for 1 hour at 4° C. and harvested onto GF/C uni-filters (Packard) by filtration using a Packard harvester and washing with ice-cold wash buffer (50 mM Tris; pH 7.5). After drying, filter-retained radioactivity was detected by liquid scintillation counting. Ki values were calculated using Excel-Fit (Microsoft) and are the means of two determinations.

Sequence of human GABA A receptor α5β3γ2 (α5 subunit) (P31644 32-462): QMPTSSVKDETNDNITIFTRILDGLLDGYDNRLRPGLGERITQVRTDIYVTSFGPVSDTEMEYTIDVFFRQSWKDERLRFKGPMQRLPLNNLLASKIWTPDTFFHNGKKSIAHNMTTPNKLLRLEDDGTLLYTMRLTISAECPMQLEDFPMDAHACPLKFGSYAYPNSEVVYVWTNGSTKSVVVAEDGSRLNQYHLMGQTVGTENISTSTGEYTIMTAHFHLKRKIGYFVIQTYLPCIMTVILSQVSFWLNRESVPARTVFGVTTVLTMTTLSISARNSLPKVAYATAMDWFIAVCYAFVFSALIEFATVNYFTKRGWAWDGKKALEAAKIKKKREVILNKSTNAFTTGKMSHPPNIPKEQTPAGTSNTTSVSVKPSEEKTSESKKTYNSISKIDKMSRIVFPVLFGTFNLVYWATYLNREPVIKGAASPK
Sequence of human GABA A receptor α5β3γ2 (α5 subunit) (P28472 26-473 partner): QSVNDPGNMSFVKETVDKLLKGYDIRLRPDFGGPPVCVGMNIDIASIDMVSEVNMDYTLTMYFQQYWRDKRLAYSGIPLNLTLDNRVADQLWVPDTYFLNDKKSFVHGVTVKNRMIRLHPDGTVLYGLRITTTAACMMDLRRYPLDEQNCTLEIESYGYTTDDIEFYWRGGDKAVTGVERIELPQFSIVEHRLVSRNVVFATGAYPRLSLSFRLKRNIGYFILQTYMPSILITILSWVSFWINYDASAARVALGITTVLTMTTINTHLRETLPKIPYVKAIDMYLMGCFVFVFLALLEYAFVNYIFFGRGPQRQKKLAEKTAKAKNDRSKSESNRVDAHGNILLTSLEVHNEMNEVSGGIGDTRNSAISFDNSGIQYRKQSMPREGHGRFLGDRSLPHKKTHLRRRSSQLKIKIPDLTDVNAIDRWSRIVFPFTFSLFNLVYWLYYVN
Sequence of human GABA A receptor α5β3γ2 (α5 subunit) (P18507 40-475): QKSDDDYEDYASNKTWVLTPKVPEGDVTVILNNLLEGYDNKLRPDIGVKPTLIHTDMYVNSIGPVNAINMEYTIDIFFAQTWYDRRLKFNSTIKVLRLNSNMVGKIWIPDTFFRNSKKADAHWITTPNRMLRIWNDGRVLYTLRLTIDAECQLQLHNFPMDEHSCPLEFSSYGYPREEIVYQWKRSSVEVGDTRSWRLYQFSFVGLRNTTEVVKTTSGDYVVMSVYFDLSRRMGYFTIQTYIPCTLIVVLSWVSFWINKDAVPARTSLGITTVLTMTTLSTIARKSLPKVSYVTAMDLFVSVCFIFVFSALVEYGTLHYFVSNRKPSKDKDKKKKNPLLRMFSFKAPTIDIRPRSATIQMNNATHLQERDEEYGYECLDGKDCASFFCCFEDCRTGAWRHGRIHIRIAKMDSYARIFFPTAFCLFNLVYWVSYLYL

Regarding `Cc1onc(-c2ccccn2)c1COc1ccc(C(=O)NC2CC2)nn1` [Example 97, 6-(5-Methyl-3-pyridin-2-yl-isoxazol-4-ylmethoxy)-pyridazine-3-carboxylic acid cyclopropylamide], the Ki was 1.6 nM.

As for `Cc1onc(-c2ccccc2)c1COc1ccc(NC(=O)C2CCC2)nn1` [Example 22, Cyclobutanecarboxylic acid [6-(5-methyl-3-phenyl-isoxazol-4-ylmethoxy)-pyridazin-3-yl]-amide], the Ki was 10.1 nM.

In the case of `Cc1onc(-c2ccccn2)c1COc1ccc(Cl)nn1` [Example 92, 3-Chloro-6-(5-methyl-3-pyridin-2-yl-isoxazol-4-ylmethoxy)-pyridazine], the Ki was 3.8 nM.

With `CCNC(=O)c1ccc(OCc2c(-c3cccc(F)c3)noc2C)nn1` [Example 51, 6-[3-(3-Fluoro-phenyl)-5-methyl-isoxazol-4-ylmethoxy]-pyridazine-3-carboxylic acid ethylamide], the Ki came to 6.1 nM.

Regarding `Cc1onc(-c2ccccn2)c1COc1ccc(C(=O)N2CCS(=O)(=O)CC2)nn1` [Example 99, (1,1-Dioxo-1λ6-thiomorpholin-4-yl)-[6-(5-methyl-3-pyridin-2-yl-isoxazol-4-ylmethoxy)-pyridazin-3-yl]-methanone], the Ki was 18.1 nM.

In the case of `CC(=O)Nc1ccc(OCc2c(-c3ccccc3)noc2C)nn1` [Example 17, N-[6-(5-Methyl-3-phenyl-isoxazol-4-ylmethoxy)-pyridazin-3-yl]-acetamide], the Ki was determined as 3.9 nM.

For the compound `Cc1onc(-c2ccccn2)c1COc1ccc(C(=O)NCCO)nn1` [Example 101, 6-(5-Methyl-3-pyridin-2-yl-isoxazol-4-ylmethoxy)-pyridazine-3-carboxylic acid (2-hydroxy-ethyl)-amide], the Ki was determined as 1.4 nM.

Turning to `Cc1onc(-c2ccc(Cl)cn2)c1COc1ccc(C(=O)O)nn1` [Example 113, 6-[3-(5-Chloro-pyridin-2-yl)-5-methyl-isoxazol-4-ylmethoxy]-pyridazine-3-carboxylic acid], the Ki came out at 2.1 nM.

Regarding `Cc1onc(-c2ccccn2)c1COc1ccc(C(=O)NC2CCOCC2)nn1` [Example 94, 6-(5-Methyl-3-pyridin-2-yl-isoxazol-4-ylmethoxy)-pyridazine-3-carboxylic acid (tetrahydro-pyran-4-yl)-amide], the Ki was found to be 2.9 nM.

On to `CNc1ccc(OCc2c(-c3ccccc3)noc2C)nn1` [Example 37, Methyl-[6-(5-methyl-3-phenyl-isoxazol-4-ylmethoxy)-pyridazin-3-yl]-amine HCl], for which the Ki turned out to be 6.3 nM.

`Cc1onc(-c2ccccc2)c1COc1ccc(Br)nn1` [Example 2, 3-Bromo-6-(5-methyl-3-phenyl-isoxazol-4-ylmethoxy)-pyridazine]: the Ki came out at 7.6 nM.

On to `Cc1onc(-c2ccccc2)c1COc1ccc2nncn2n1` [Example 86, 6-(5-Methyl-3-phenyl-isoxazol-4-ylmethoxy)-[1,2,4]triazolo[4,3-b]pyridazine], for which the Ki was determined as 6.6 nM.

Take `COC(=O)C(=O)Nc1ccc(OCc2c(-c3ccccc3)noc2C)nn1` [Example 28, N-[6-(5-Methyl-3-phenyl-isoxazol-4-ylmethoxy)-pyridazin-3-yl]-oxalamic acid methyl ester]: the Ki amounted to 5.1 nM.

Consider `Cc1onc(-c2ccc(F)cc2)c1COc1ccc2nncn2n1` [Example 91, 6-[3-(4-Fluoro-phenyl)-5-methyl-isoxazol-4-ylmethoxy]-[1,2,4]triazolo[4,3-b]pyridazine], for which the Ki was determined as 7.5 nM.
